Results: BigSolDB 2.1

With `O=C(c1ccccc1)c1ccc(Cl)cc1` the solubility (mole fraction) (in acetone, 278.15 K) was 0.0863, the solubility (mole fraction) (in acetone, 283.15 K) was 0.0934 and the solubility (mole fraction) (in acetone, 288.15 K) was 0.116. For the same compound, the solubility (mole fraction) (in acetone, 293.15 K) was 0.146, the solubility (mole fraction) (in acetone, 298.15 K) was 0.181 and the solubility (mole fraction) (in acetone, 303.15 K) was 0.224. The solubility (mole fraction) (in acetone, 308.15 K) was 0.277, the solubility (mole fraction) (in acetone, 313.15 K) was 0.342 and the solubility (mole fraction) (in acetone, 318.15 K) was 0.454. The solubility (mole fraction) (in acetone, 323.15 K) was 0.615, the solubility (mole fraction) (in acetonitrile, 278.15 K) was 0.0216 and the solubility (mole fraction) (in acetonitrile, 283.15 K) was 0.0258. For the same compound, the solubility (mole fraction) (in acetonitrile, 288.15 K) was 0.0352, the solubility (mole fraction) (in acetonitrile, 293.15 K) was 0.0438 and the solubility (mole fraction) (in acetonitrile, 298.15 K) was 0.0625. The solubility (mole fraction) (in acetonitrile, 303.15 K) was 0.0858, the solubility (mole fraction) (in acetonitrile, 308.15 K) was 0.131 and the solubility (mole fraction) (in acetonitrile, 313.15 K) was 0.19. For the same compound, the solubility (mole fraction) (in acetonitrile, 318.15 K) was 0.307, the solubility (mole fraction) (in acetonitrile, 323.15 K) was 0.616 and the solubility (mole fraction) (in ethanol, 278.15 K) was 0.00817. The solubility (mole fraction) (in ethanol, 283.15 K) was 0.0103, the solubility (mole fraction) (in ethanol, 288.15 K) was 0.0124 and the solubility (mole fraction) (in ethanol, 293.15 K) was 0.0151. It also gave a solubility (mole fraction) (in ethanol, 298.15 K) of 0.0195, a solubility (mole fraction) (in ethanol, 303.15 K) of 0.0239 and a solubility (mole fraction) (in ethanol, 308.15 K) of 0.0318. The solubility (mole fraction) (in ethanol, 313.15 K) was 0.043, the solubility (mole fraction) (in ethanol, 318.15 K) was 0.06 and the solubility (mole fraction) (in ethanol, 323.15 K) was 0.0856. For the same compound, the solubility (mole fraction) (in ethyl acetate, 278.15 K) was 0.114, the solubility (mole fraction) (in ethyl acetate, 283.15 K) was 0.118 and the solubility (mole fraction) (in ethyl acetate, 288.15 K) was 0.138. For the same compound, the solubility (mole fraction) (in ethyl acetate, 293.15 K) was 0.167, the solubility (mole fraction) (in ethyl acetate, 298.15 K) was 0.203 and the solubility (mole fraction) (in ethyl acetate, 303.15 K) was 0.24. It also gave a solubility (mole fraction) (in ethyl acetate, 308.15 K) of 0.294, a solubility (mole fraction) (in ethyl acetate, 313.15 K) of 0.351 and a solubility (mole fraction) (in ethyl acetate, 318.15 K) of 0.43. For the same compound, the solubility (mole fraction) (in ethyl acetate, 323.15 K) was 0.534, the solubility (mole fraction) (in isobutanol, 278.15 K) was 0.0102 and the solubility (mole fraction) (in isobutanol, 283.15 K) was 0.0113. The solubility (mole fraction) (in isobutanol, 288.15 K) was 0.0138, the solubility (mole fraction) (in isobutanol, 293.15 K) was 0.0173 and the solubility (mole fraction) (in isobutanol, 298.15 K) was 0.0225. For the same compound, the solubility (mole fraction) (in isobutanol, 303.15 K) was 0.0305, the solubility (mole fraction) (in isobutanol, 308.15 K) was 0.0408 and the solubility (mole fraction) (in isobutanol, 313.15 K) was 0.0549. It also gave a solubility (mole fraction) (in isobutanol, 318.15 K) of 0.0821, a solubility (mole fraction) (in isobutanol, 323.15 K) of 0.123 and a solubility (mole fraction) (in isopropanol, 278.15 K) of 0.00704. It also gave a solubility (mole fraction) (in isopropanol, 283.15 K) of 0.00886, a solubility (mole fraction) (in isopropanol, 288.15 K) of 0.0118 and a solubility (mole fraction) (in isopropanol, 293.15 K) of 0.0153. It also gave a solubility (mole fraction) (in isopropanol, 298.15 K) of 0.0187, a solubility (mole fraction) (in isopropanol, 303.15 K) of 0.0223 and a solubility (mole fraction) (in isopropanol, 308.15 K) of 0.0288. The solubility (mole fraction) (in isopropanol, 313.15 K) was 0.0398, the solubility (mole fraction) (in isopropanol, 318.15 K) was 0.0617 and the solubility (mole fraction) (in isopropanol, 323.15 K) was 0.0896. The solubility (mole fraction) (in methanol, 278.15 K) was 0.00549, the solubility (mole fraction) (in methanol, 283.15 K) was 0.00622 and the solubility (mole fraction) (in methanol, 288.15 K) was 0.00802. The solubility (mole fraction) (in methanol, 293.15 K) was 0.00943, the solubility (mole fraction) (in methanol, 298.15 K) was 0.012 and the solubility (mole fraction) (in methanol, 303.15 K) was 0.0149. For the same compound, the solubility (mole fraction) (in methanol, 308.15 K) was 0.0203, the solubility (mole fraction) (in methanol, 313.15 K) was 0.027 and the solubility (mole fraction) (in methanol, 318.15 K) was 0.0384. It also gave a solubility (mole fraction) (in methanol, 323.15 K) of 0.0594, a solubility (mole fraction) (in methyl acetate, 278.15 K) of 0.0971 and a solubility (mole fraction) (in methyl acetate, 283.15 K) of 0.109. The solubility (mole fraction) (in methyl acetate, 288.15 K) was 0.134, the solubility (mole fraction) (in methyl acetate, 293.15 K) was 0.164 and the solubility (mole fraction) (in methyl acetate, 298.15 K) was 0.196. The solubility (mole fraction) (in methyl acetate, 303.15 K) was 0.239, the solubility (mole fraction) (in methyl acetate, 308.15 K) was 0.289 and the solubility (mole fraction) (in methyl acetate, 313.15 K) was 0.354. The solubility (mole fraction) (in methyl acetate, 318.15 K) was 0.417, the solubility (mole fraction) (in methyl acetate, 323.15 K) was 0.494 and the solubility (mole fraction) (in n-butanol, 278.15 K) was 0.0271. The solubility (mole fraction) (in n-butanol, 283.15 K) was 0.0304, the solubility (mole fraction) (in n-butanol, 288.15 K) was 0.0347 and the solubility (mole fraction) (in n-butanol, 293.15 K) was 0.0394. It also gave a solubility (mole fraction) (in n-butanol, 298.15 K) of 0.0436, a solubility (mole fraction) (in n-butanol, 303.15 K) of 0.0478 and a solubility (mole fraction) (in n-butanol, 308.15 K) of 0.0531. It also gave a solubility (mole fraction) (in n-butanol, 313.15 K) of 0.0677, a solubility (mole fraction) (in n-butanol, 318.15 K) of 0.0993 and a solubility (mole fraction) (in n-butanol, 323.15 K) of 0.211. The solubility (mole fraction) (in n-butyl acetate, 278.15 K) was 0.133, the solubility (mole fraction) (in n-butyl acetate, 283.15 K) was 0.142 and the solubility (mole fraction) (in n-butyl acetate, 288.15 K) was 0.156. For the same compound, the solubility (mole fraction) (in n-butyl acetate, 293.15 K) was 0.182, the solubility (mole fraction) (in n-butyl acetate, 298.15 K) was 0.212 and the solubility (mole fraction) (in n-butyl acetate, 303.15 K) was 0.248. The solubility (mole fraction) (in n-butyl acetate, 308.15 K) was 0.285, the solubility (mole fraction) (in n-butyl acetate, 313.15 K) was 0.329 and the solubility (mole fraction) (in n-butyl acetate, 318.15 K) was 0.383. The solubility (mole fraction) (in n-butyl acetate, 323.15 K) was 0.454, the solubility (mole fraction) (in n-propanol, 278.15 K) was 0.0111 and the solubility (mole fraction) (in n-propanol, 283.15 K) was 0.0128. The solubility (mole fraction) (in n-propanol, 288.15 K) was 0.0163, the solubility (mole fraction) (in n-propanol, 293.15 K) was 0.0205 and the solubility (mole fraction) (in n-propanol, 298.15 K) was 0.0247. It also gave a solubility (mole fraction) (in n-propanol, 303.15 K) of 0.0325, a solubility (mole fraction) (in n-propanol, 308.15 K) of 0.0424 and a solubility (mole fraction) (in n-propanol, 313.15 K) of 0.0571. For the same compound, the solubility (mole fraction) (in n-propanol, 318.15 K) was 0.0829 and the solubility (mole fraction) (in n-propanol, 323.15 K) was 0.135.
